Marks after values point to notes of the source that are not given here.
Assays:
Type in all cases: in vivo, mouse
[1] = test system: C57BL/6J mice; assay: Acute administration of A28 at multiple doses, urinary glucose of C57BL/6J mice; settings: 24 h urine
Protocol: (1) 90 normal male C57BL/6J mice were selected and randomly divided into 9 groups according to body weight and blood glucose, 10 in each group. […] After oral gavage, the mice were placed in rats (mice) metabolic cages, […] and urine was collected after 24 h, and the urine volume was recorded, then preserved under −20° C. Rats take food and water freely during the experimental period.
(2) Index Determination: Glucose levels in urine are measured by the glucose assay kit.

[2] = test system: C57BL/6J mice; assay: Acute administration of A28 at multiple doses, oral glucose tolerance of C57BL/6J mice; settings: C57BL/6J mice OGTT; for Blood glucose level 0: before sugar
Protocol: (1) Experimental Methods: 56 C57BL/6J mice were selected and starved for 6 h, took water freely, then randomly divided into 7 groups according to body weight and random blood glucose, 8 rats in each group. […] Average hypoglycemic rate %=(AUC0-120 min of solvent control group−AUC0-120 min of administration group)/(AUC0-120 min of solvent control group−AUC0-120 min of blank control group)*100%

[3] = test system: db/db mice; assay: Acute administration at multiple doses, random blood glucose in db/db mice; settings: for Blood glucose level 0 h: before administration
Protocol: (1) 127 db/db mice (half male and half female) entered the animal laboratory of the institute at 7 weeks of age and were grouped at 10 weeks of age. Random blood glucose and random body weight of all db/db mice were determined at 9:00 am, and then fasted for 6 hours (free drinking). Fasting blood glucose and fasting body weight were determined, and blood was collected (10 μl EDTA+20 μl tail blood, centrifugated to collect supernatant) to determine the insulin content. […] The db/db mice were once orally administered at a dose of 10 mL/kg. Blood glucose levels were measured before administration, and at 1 h, 2 h, 3 h, 4 h, 6 h after administration, and the administration times and body weights were recorded. Mice took food and water freely during the experiment.
Average hypoglycemic rate %=(model control group−administration group)/(model control group−blank control group)*100%

[4] = test system: db/db mice; assay: Chronic administration, glycosylated hemoglobin level in db/db mice; settings: for HbA1c Decline rate %: vs vehicle
Protocol: (§1) Oral gavage administrated, daily dose volume was 10 mL/kg, administered once daily. Administration time was 9: 00-10:00 daily, and the administration period was 5 weeks.
In the end of the above experiment, the orbital blood was taken from animals of each group and divided into two tubes, one was centrifuged to take blood cells for the determination of glycated hemoglobin content, the other tube was added with 25 μL EDTA in advance, centrifuged and the supernatant was taken to determine the indexes such as triglyceride (TG), total cholesterol (TC), total protein (TP), albumin, low density lipoprotein (LDL), high density lipoprotein (HDL), non-esterified fatty acid (NEFA) and so on.

[5] = test system: db/db mice; assay: Chronic administration, oral glucose tolerance in db/db mice; settings: glucose tolerance, chronic administration; for AUC0-2 h reduction rate (%): vs vehicle
Protocol: as §1
The glucose tolerance of mice of normal control group, model control group, test substance group and positive control group were determined 3 weeks after administration of drug, oral administrated with 1.5 g/kg of glucose, and taken 2 μL of blood on the tail. 4 μL of normal saline was added to 96 well sharp bottom plate to dilute evenly, and then the blood glucose was measured. The blood glucose levels before the sugar administration and at 15, 30, 60, 90 and 120 min after the sugar administration were measured. The true blood glucose level was calculated and the area under the blood glucose curve within 120 min was calculated by the following formula: AUC0-2h (mmol/L·h)=(BG0+BG15)×0.25/2+(BG15+BG30)×0.25/2+(BG30+BG60)×0.5/2+(BG60+[…])×1.0/2 Note: BG0, BG15, BG30, BG60 and BG120 represent the blood glucose levels before the sugar administration, and at 15, 30, 60, and 120 min after sugar administration, respectively. Average hypoglycemic rate %=(solvent control group AUC0-2h−administration group AUC0-2h)/solvent control group AUC0-2h*100%

CCOc1ccc(Cc2cc([C@@H]3O[C@H](CO)[C@@H](O)[C@H](O)[C@H]3O)ccc2Cl)cc1 [Dapa]
Total sugar excretion ([1]; oral 1 mg/kg): 258.20 ± 81.71 mg/100 g | Urine concentration ([1]; oral 1 mg/kg): 142.82 ± 45.20 mmol/L | Urine volume ([1]; oral 1 mg/kg): 2.3 ± 0.7 mL | Total sugar excretion ([1]; oral 3 mg/kg): 315.49 ± 99.84 mg/100 g | Urine concentration ([1]; oral 3 mg/kg): 177.86 ± 56.29 mmol/L | Urine volume ([1]; oral 3 mg/kg): 2.3 ± 0.7 mL | AUC0-2 h ([2]; oral 0.3 mg/kg): 20.9 ± 1.6 mmol·h/L | Average hypoglycemic rate % (0-2 h) ([2]; oral 0.3 mg/kg): 4.9% | Blood glucose level 15 min ([2]; oral 0.3 mg/kg): 13.4 ± 2.3 mmol/L | Blood glucose level 30 min ([2]; oral 0.3 mg/kg): 12.1 ± 1.0 mmol/L | Blood glucose level 60 min ([2]; oral 0.3 mg/kg): 10.6 ± 1.0 mmol/L | Blood glucose level 90 min ([2]; oral 0.3 mg/kg): 9.3 ± 1.1 mmol/L | Blood glucose level 120 min ([2]; oral 0.3 mg/kg): 8.8 ± 0.8 mmol/L | Blood glucose level 0 ([2]; oral 0.3 mg/kg): 7.1 ± 0.4 mmol/L | AUC0-2 h ([2]; oral 1 mg/kg): 19.3 ± 1.3 mmol·h/L | Average hypoglycemic rate % (0-2 h) ([2]; oral 1 mg/kg): 12.4% | Blood glucose level 15 min ([2]; oral 1 mg/kg): 12.3 ± 1.1 mmol/L | Blood glucose level 30 min ([2]; oral 1 mg/kg): 12.0 ± 1.1 mmol/L | Blood glucose level 60 min ([2]; oral 1 mg/kg): 9.1 ± 1.1 mmol/L | Blood glucose level 90 min ([2]; oral 1 mg/kg): 8.4 ± 0.9 mmol/L | Blood glucose level 120 min ([2]; oral 1 mg/kg): 8.5 ± 0.9 mmol/L | Blood glucose level 0 ([2]; oral 1 mg/kg): 6.5 ± 0.9 mmol/L | AUC0-2 h ([2]; oral 3 mg/kg): 18.2 ± 1.6 mmol·h/L | Average hypoglycemic rate % (0-2 h) ([2]; oral 3 mg/kg): 17.5% | Blood glucose level 15 min ([2]; oral 3 mg/kg): 11.6 ± 0.9 mmol/L | Blood glucose level 30 min ([2]; oral 3 mg/kg): 11.6 ± 1.1 mmol/L | Blood glucose level 60 min ([2]; oral 3 mg/kg): 8.9 ± 1.4 mmol/L | Blood glucose level 90 min ([2]; oral 3 mg/kg): 7.9 ± 1.1 mmol/L | Blood glucose level 120 min ([2]; oral 3 mg/kg): 7.0 ± 0.6 mmol/L | Blood glucose level 0 ([2]; oral 3 mg/kg): 6.1 ± 1.0 mmol/L | AUC0-6 h ([3]; single oral 1 mg/kg): 67.8 ± 2.5 mmol·h/L | Blood glucose level 1 h ([3]; single oral 1 mg/kg): 13.0 ± 0.7 mmol/L | Blood glucose level 2 h ([3]; single oral 1 mg/kg): 11.4 ± 0.6 mmol/L | Blood glucose level 3 h ([3]; single oral 1 mg/kg): 10.2 ± 0.6 mmol/L | Blood glucose level 4 h ([3]; single oral 1 mg/kg): 9.8 ± 0.7 mmol/L | Blood glucose level 6 h ([3]; single oral 1 mg/kg): 8.8 ± 0.6 mmol/L | Blood glucose level 0 h ([3]; single oral 1 mg/kg): 19.3 ± 1.3 mmol/L | AUC0-6 h ([3]; single oral 3 mg/kg): 59.7 ± 1.7 mmol·h/L | Blood glucose level 1 h ([3]; single oral 3 mg/kg): 11.8 ± 0.5 mmol/L | Blood glucose level 2 h ([3]; single oral 3 mg/kg): 8.5 ± 0.4 mmol/L | Blood glucose level 3 h ([3]; single oral 3 mg/kg): 8.6 ± 0.5 mmol/L | Blood glucose level 4 h ([3]; single oral 3 mg/kg): 8.5 ± 0.3 mmol/L | Blood glucose level 6 h ([3]; single oral 3 mg/kg): 9.4 ± 0.7 mmol/L | Blood glucose level 0 h ([3]; single oral 3 mg/kg): 17.5 ± 1.3 mmol/L | HbA1c (%) ([4]; dose 1 mg/kg): 5.79 ± 0.32 % | HbA1c Decline rate % ([4]; dose 1 mg/kg): 23.7% | HbA1c (%) ([4]; dose 3 mg/kg): 5.32 ± 0.26 % | HbA1c Decline rate % ([4]; dose 3 mg/kg): 29.9% | Blood glucose AUC0-2 h ([5]; dose 1 mg/kg): 7.9 ± 1.7 | Blood glucose (mmol/L) 0 min ([5]; dose 1 mg/kg): 10.0 ± 1.0 mmol/L | Blood glucose (mmol/L) 15 min ([5]; dose 1 mg/kg): 19.9 ± 1.0 mmol/L | Blood glucose (mmol/L) 30 min ([5]; dose 1 mg/kg): 20.3 ± 1.1 mmol/L | Blood glucose (mmol/L) 60 min ([5]; dose 1 mg/kg): 11.1 ± 0.5 mmol/L | Blood glucose (mmol/L) 90 min ([5]; dose 1 mg/kg): 10.8 ± 0.4* * mmol/L | Blood glucose (mmol/L) 120 min ([5]; dose 1 mg/kg): 11.8 ± 0.5* * mmol/L | AUC0-2 h reduction rate (%) ([5]; dose 1 mg/kg): 48.9% | Blood glucose AUC0-2 h ([5]; dose 3 mg/kg): 9.4 ± 1.7 | Blood glucose (mmol/L) 0 min ([5]; dose 3 mg/kg): 8.6 ± 0.4 mmol/L | Blood glucose (mmol/L) 15 min ([5]; dose 3 mg/kg): 19.0 ± 1.2 mmol/L | Blood glucose (mmol/L) 30 min ([5]; dose 3 mg/kg): 20.2 ± 1.8 mmol/L | Blood glucose (mmol/L) 60 min ([5]; dose 3 mg/kg): 12.0 ± 1.4 mmol/L | Blood glucose (mmol/L) 90 min ([5]; dose 3 mg/kg): 9.9 ± 0.8 mmol/L | Blood glucose (mmol/L) 120 min ([5]; dose 3 mg/kg): 9.1 ± 0.6 mmol/L | AUC0-2 h reduction rate (%) ([5]; dose 3 mg/kg): 36.1%

Reference: patent publication US10550143B2, “C,O-spiro aryl glycoside compounds, preparation therefor and use thereof” (SHANGHAI INSTITUTE OF MATERIA MEDICA, CHINESE ACADEMY OF …, priority 2015, dated 2020)
